Measured values: patent US10695334B2, “Heteroaromatic carboxamide derivatives as plasma kallikrein inhibitors” (Boehringer Ingelheim International GmbH, priority 2018, dated 2020)
Values belong to the molecule of their own block, whether it stands above or below them.

Tests used:
Type in all cases: biochemical
Human PKK [1] = molecular target: T1, Human PKK (Homo sapiens (Human), UniProt P03952); test: Inhibition of PKK, endpoint assay (human PKK); details: substrate H-Pro-Phe-Arg-AMC, 1 h room temperature
T1 sequence (P03952 391-638): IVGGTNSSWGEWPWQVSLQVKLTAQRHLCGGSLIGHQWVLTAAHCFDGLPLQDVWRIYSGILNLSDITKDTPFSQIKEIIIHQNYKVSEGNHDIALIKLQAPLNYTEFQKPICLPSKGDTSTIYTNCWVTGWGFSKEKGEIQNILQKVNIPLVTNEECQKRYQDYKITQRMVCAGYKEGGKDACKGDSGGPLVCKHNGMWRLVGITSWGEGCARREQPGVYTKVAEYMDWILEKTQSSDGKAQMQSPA
T1 sequence (P03952 20-390 partner): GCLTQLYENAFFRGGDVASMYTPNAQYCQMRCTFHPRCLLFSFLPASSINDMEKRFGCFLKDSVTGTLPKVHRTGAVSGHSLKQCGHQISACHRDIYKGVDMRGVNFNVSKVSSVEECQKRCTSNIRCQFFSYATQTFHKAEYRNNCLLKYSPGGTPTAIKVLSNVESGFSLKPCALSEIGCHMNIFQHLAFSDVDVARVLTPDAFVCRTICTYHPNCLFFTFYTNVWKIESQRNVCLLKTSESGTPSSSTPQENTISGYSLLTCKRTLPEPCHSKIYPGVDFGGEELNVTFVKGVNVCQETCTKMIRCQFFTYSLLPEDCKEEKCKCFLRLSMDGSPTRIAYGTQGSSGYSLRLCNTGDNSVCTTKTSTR
Procedure: Subsequently, PPACK II (Calbiochem) was added as a stop solution to achieve a final concentration of 1 μM and fluorescence was measured using an Envision Reader (PerkinElmer) with the wavelength excitation setting of 355 nm and the wavelength emission setting of 460 nm.

Human PKK [2] = molecular target: T1, Human PKK; test: Inhibition of PKK (Ki), kinetic assay; details: 24° C., IC50 corrected for KM
Procedure: Measurements were performed in a kinetic interval every 2nd minute for 16 min using a Spectramax M5 (Molecular Devices) with the following settings of the wavelength excitation of 350 nm and wavelength emission of 450 nm. The number of the compound corresponds to the number of the Example in the experimental section.
The pIC50 values were then fitted using a four-parametric fitting procedure using GraphPad Prism (version 6; GraphPad Software, Inc.).
(§1) Where the IC50 is in molar and the KM value in mM.

human TK1 = human TK1 (Homo sapiens (Human), UniProt P06870); test: Inhibition of TK1 (Ki); details: column head prints IC50, text above the table says Ki values
Chain of human TK1 (P06870 25-262): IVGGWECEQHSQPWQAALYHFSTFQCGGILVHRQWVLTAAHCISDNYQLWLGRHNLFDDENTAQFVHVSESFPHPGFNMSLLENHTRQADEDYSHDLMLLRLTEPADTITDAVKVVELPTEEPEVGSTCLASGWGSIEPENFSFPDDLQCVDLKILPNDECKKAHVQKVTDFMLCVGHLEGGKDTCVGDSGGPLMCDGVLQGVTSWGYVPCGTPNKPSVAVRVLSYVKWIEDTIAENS
Procedure: The ability of compounds of formula (I) to inhibit plasma kallikrein (PKK), Factor Xlla (FXIIa), Factor Xla (FXIa), Factor Xa (FXa), Factor Ila (alpha-thrombin; FIIa), plasmin, trypsin, tissue kallikrein 1 (TK1), Factor VIIa (FVIIa), or FVIIa complexed with Tissue Factor, phospholipids and CaCl2 (FVIIa/TF/PL/CaCl2) was determined using the following biochemical assays in assay buffer (100 mM Tris, 150 mM NaCL, adjusted to a pH of 7.8 with HCl, and containing 0.1% (w/v) BSA and 0.05% (v/v) Tween20) in the presence of 1% (v/v) DMSO: EVALUATION OF THE INHIBITION OF PKK USING AN ENDPOINT ASSAY Human PKK (0.01 U/mL; Enzyme Research Laboratories) or rat PKK (0.625 nM; produced in-house) was incubated for 1 h at room temperature with 0.10 μM fluorogenic substrate H-Pro-Phe-Arg-AMC (11295 from Bachem) and various concentrations of the test compound in assay buffer. Subsequently, PPACK II (Calbiochem) was added as a stop solution to achieve a final concentration of 1 μM and fluorescence was measured using an Envision Reader (PerkinElmer) with the wavelength excitation setting of 355 nm and the wavelength emission setting of 460 nm.
Prior to the assay, human TK1 (R&D Systems) was activated by incubation with human trypsin (Calbiochem) in a 1:10,000 ratio for 15 min at 37° C. For assaying TK1 inhibitory activity, activated TK1 (31.25 nM or 1 U/mL) was incubated at 24° C. with 0.1 mM fluorogenic substrate H-Pro-Phe-Arg-AMC (11295 from Bachem) and various concentrations of the test compound in assay buffer. Measurements were performed in a kinetic interval every 2nd minute for 16 min using a Spectramax M5 (Molecular Devices) with the following settings of the wavelength excitation of 350 nm and wavelength emission of 450 nm.
The average Vmax values for the time interval from 2 to 12 min after initiation of the assay (expressed as either delta OD/min for assays using a chromogenic substrate or delta RFU/min for assays using a fluorigenic substrate, respectively) were plotted versus the Log of the concentration in molar of the evaluated inhibitor compound. The pIC50 values were then fitted using a four-parametric fitting procedure using GraphPad Prism (version 6; GraphPad Software, Inc.). Respective Ki values were obtained by correction of the IC50 values for the respective KM value of the used substrate (see Table A for the obtained KM values of the used substrates) using the following formula: […]
as §1

SMILES: Cc1nc(N2CC3C(C2)C3(F)F)ccc1Cn1cc(C(=O)N[C@@H]2CCc3c(C)n[nH]c32)c2cncnc21 (stereo partly drawn) [Example 13, 7-[(6-{6,6-Difluoro-3-azabicyclo[3.1.0]hexan-3-yl}-2-methylpyridin-3-yl)methyl]-N-[(6R)-3-methyl-1H,4H,5H,6H-cyclopenta[c]pyrazol-6-yl]-7H-pyrrolo[2,3-d]pyrimidine-5-carboxamide]
IC50 (Human PKK [1]): 0.5 nM
Ki (Human PKK [2]): 0.1 nM
IC50 (human TK1): > 10000 nM

SMILES: Cc1nc(N2CC3(CC3)C2)ncc1Cn1cc(C(=O)N[C@@H]2CCc3c(C)n[nH]c32)c2cncnc21 [Example 33, 7-[(2-{5-Azaspiro[2.3]hexan-5-yl}-4-methyl-pyrimidin-5-yl)methyl]-N-[(6R)-3-methyl-1H,4H,5H,6H-cyclopenta[c]pyrazol-6-yl]-7H-pyrrolo[2,3-d]pyrimidine-5-carboxamide]
IC50 (Human PKK [1]): 3 nM
IC50 (human TK1): > 10000 nM

SMILES: Cc1nc(N2CCC3(CC3)C2)ccc1Cn1cc(C(=O)N[C@@H]2CCc3c2n[nH]c3C)cn1 [Example 45, 1-[(6-{5-Azaspiro[2.4]heptan-5-yl]-2-methylpyridin-3-yl)methyl]-N-[(6R)-3-methyl-2H,4H,5H,6H-cyclopenta[c]pyrazol-6-yl]-1H-pyrazole-4-carboxamide]
IC50 (Human PKK [1]): 4 nM
IC50 (human TK1): > 10000 nM

SMILES: Cc1nc(N2CC3CC3C2)ccc1Cn1cc(C(=O)N[C@@H]2CCc3c(C)n[nH]c32)nn1 (stereo partly drawn) [Example 86, 1-[(6-{3-Azabicyclo[3.1.0]hexan-3-yl}-2-methylpyridin-3-yl)methyl]-N-[(6R)-3-methyl-1H,4H,5H,6H-cyclopenta[c]pyrazol-6-yl]-1H-1,2,3-triazole-4-carboxamide]
IC50 (Human PKK [1]): 0.4 nM
IC50 (human TK1): > 10000 nM

SMILES: Cc1nc(N2CC3C(C2)C3(F)F)ncc1Cn1cnc(C(=O)N[C@@H]2CCc3c2n[nH]c3C)c1 (stereo partly drawn) [Example 92, 1-[(2-{6,6-Difluoro-3-azabicyclo[3.1.0]hexan-3-yl}-4-methylpyrimidin-5-yl)methyl]-N-[(6R)-3-methyl-2H,4H,5H,6H-cyclopenta[c]pyrazol-6-yl]-1H-imidazole-4-carboxamide]
IC50 (Human PKK [1]): 1 nM
IC50 (human TK1): > 10000 nM

SMILES: Cc1nc(N2CC3(CC3)C2)ncc1Cn1cnc(C(=O)N[C@@H]2CCc3c(C)n[nH]c32)c1 [Example 93, 1-[(2-{5-Azaspiro[2.3]hexan-5-yl}-4-methyl-pyrimidin-5-yl)methyl]-N-[(6R)-3-methyl-2H,4H,5H,6H-cyclopenta[c]pyrazol-6-yl]-1H-imidazole-4-carboxamide]
IC50 (Human PKK [1]): 4 nM
IC50 (human TK1): > 10000 nM

SMILES: Cc1nc(N2C[C@@H]3[C@@H](CO)[C@@H]3C2)ccc1Cn1cc(C(=O)N[C@@H]2CCc3c(C)n[nH]c32)cn1 [Example 94, 1-({6-[(1R,5S,6R)-6-(hydroxymethyl)-3-azabicyclo[3.1.0]hexan-3-yl]-2-methylpyridin-3-yl}methyl)-N-[(6R)-3-methyl-1H,4H,5H,6H-cyclopenta[c]pyrazol-6-yl]-1H-pyrazole-4-carboxamide]
IC50 (Human PKK [1]): 2 nM
IC50 (human TK1): > 10000 nM

More lines, in order of falling IC50 (Human PKK [1]), values ahead:

IC50 (Human PKK [1]): 7 nM
SMILES: Cc1nc(N2CC3CC3C2)ccc1Cn1cnc(C(=O)N[C@@H]2CCc3c2n[nH]c3C)n1 (stereo partly drawn) [Example 107, 1-[(6-{3-Azabicyclo[3.1.0]hexan-3-yl}-2-methylpyridin-3-yl)methyl]-N-[(6R)-3-methyl-2H,4H,5H,6H-cyclopenta[c]pyrazol-6-yl]-1H-1,2,4-triazole-3-carboxamide]

IC50 (Human PKK [1]): 5 nM
IC50 (human TK1): > 10000 nM
SMILES: Cc1nc(N2CCC3CC3C2)ccc1Cn1cc(C(=O)N[C@@H]2CCc3c2n[nH]c3C)cn1 (stereo partly drawn) [Example 48, 1-[(6-{3-Azabicyclo[4.1.0]heptan-3-yl}-2-methylpyridin-3-yl)methyl]-N-[(6R)-3-methyl-2H,4H,5H,6H-cyclopenta[c]pyrazol-6-yl]-1H-pyrazole-4-carboxamide]

IC50 (Human PKK [1]): 4 nM
IC50 (human TK1): > 10000 nM
SMILES: Cc1nc(N2C[C@@H]3[C@@H](C)[C@@H]3C2)ccc1Cn1cc(C(=O)N[C@@H]2CCc3c2n[nH]c3C)cn1 [Example 79, N-[(6R)-3-Methyl-2H,4H,5H,6H-cyclopenta[c]pyrazol-6-yl]-1-({2-methyl-6-[(1R,5S,6R)-6-methyl-3-azabicyclo[3.1.0]hexan-3-yl]pyridin-3-yl}methyl)-1H-pyrazole-4-carboxamide]

IC50 (Human PKK [1]): 3 nM
IC50 (human TK1): > 10000 nM
SMILES: Cc1nc(N2CC3CC3C2)ncc1Cn1cc(C(=O)N[C@@H]2CCc3c(C)n[nH]c32)c(C)n1 (stereo partly drawn) [Example 25, 1-[(2-{3-Azabicyclo[3.1.0]hexan-3-yl}-4-methyl-pyrimidin-5-yl)methyl]-3-methyl-N-[(6R)-3-methyl-1H,4H,5H,6H-cyclopenta[c]pyrazol-6-yl]-1H-pyrazole-4-carboxamide]

IC50 (Human PKK [1]): 3 nM
IC50 (human TK1): > 10000 nM
SMILES: Cc1nc(N2CC3CC3C2)ccc1Cc1ccc(C(=O)N[C@@H]2CCc3c(C)n[nH]c32)[nH]1 (stereo partly drawn) [Example 109, 5-[(6-{3-Azabicyclo[3.1.0]hexan-3-yl}-2-methylpyridin-3-yl)methyl]-N-[(6R)-3-methyl-1H,4H,5H,6H-cyclopenta[c]pyrazol-6-yl]-1H-pyrrole-2-carboxamide]

IC50 (Human PKK [1]): 2 nM
IC50 (human TK1): > 10000 nM
SMILES: Cc1nc(N2CC3CC3C2C)ccc1Cn1cc(C(=O)N[C@@H]2CCc3c2n[nH]c3C)cn1 (stereo partly drawn) [Example 82, N-[(6R)-3-Methyl-2H,4H,5H,6H-cyclopenta[c]pyrazol-6-yl]-1-[(2-methyl-6-{2-methyl-3-azabicyclo[3.1.0]hexan-3-yl}pyridin-3-yl)methyl]-1H-pyrazole-4-carboxamide]

IC50 (Human PKK [1]): 1 nM
IC50 (human TK1): > 10000 nM
SMILES: Cc1nc(N2CC3(CC3)C2)ccc1Cn1cnc(C(=O)N[C@@H]2CCc3c(C)n[nH]c32)c1 [Example 88, 1-[(6-{5-Azaspiro[2.3]hexan-5-yl}-2-methylpyridin-3-yl)methyl]-N-[(6R)-3-methyl-2H,4H,5H,6H-cyclo-penta[c]pyrazol-6-yl]-1H-imidazole-4-carboxamide]

IC50 (Human PKK [1]): 0.8 nM
Ki (Human PKK [2]): 0.1 nM
IC50 (human TK1): > 10000 nM
SMILES: COCc1nn(Cc2ccc(N3CC4C(C3)C4(F)F)nc2C)cc1C(=O)N[C@@H]1CCc2c(C)n[nH]c21 (stereo partly drawn) [Example 15, 1-[(6-{6,6-Difluoro-3-azabicyclo[3.1.0]hexan-3-yl}-2-methylpyridin-3-yl)methyl]-3-(methoxymethyl)-N-[(6R)-3-methyl-1H,4H,5H,6H-cyclopenta[c]-pyrazol-6-yl]-1H-pyrazole-4-carboxamide]

IC50 (Human PKK [1]): 0.8 nM
IC50 (human TK1): > 10000 nM
SMILES: Cc1nc(N2CC3CC3C2)ccc1Cn1cnc(C(=O)N[C@@H]2CCc3c2n[nH]c3C)c1 (stereo partly drawn) [Example 90, 1-[(6-{3-Azabicyclo[3.1.0]hexan-3-yl}-2-methyl-pyridin-3-yl)methyl]-N-[(6R)-3-methyl-2H,4H,5H,6H-cyclopenta[c]pyrazol-6-yl]-1H-imidazole-4-carboxamide]

IC50 (Human PKK [1]): 0.6 nM
IC50 (human TK1): > 10000 nM
SMILES: Cc1nc(N2CC3C(C2)C3(F)F)ccc1Cn1cnc(C(=O)N[C@@H]2CCc3c2n[nH]c3C)c1 (stereo partly drawn) [Example 89, 1-[(6-{6,6-Difluoro-3-azabicyclo[3.1.0]hexan-3-yl}-2-methylpyridin-3-yl)methyl]-N-[(6R)-3-methyl-2H,4H,5H,6H-cyclopenta[c]pyrazol-6-yl]-1H-imidazole-4-carboxamide]

IC50 (Human PKK [1]): 0.5 nM
Ki (Human PKK [2]): 0.1 nM
IC50 (human TK1): > 10000 nM
SMILES: Cc1nc(N2CC3CC3C2)ccc1Cn1cc(C(=O)N[C@@H]2CCc3c(C)n[nH]c32)c(C(F)F)n1 (stereo partly drawn) [Example 14, 1-[(6-{3-Azabicyclo[3.1.0]hexan-3-yl}-2-methyl-pyridin-3-y)methyl]-3-(difluoromethyl)-N-[(6R)-3-methyl-1H,4H,5H,6H-cyclopenta[c]pyrazol-6-yl]-1H-pyrazole-4-carboxamide]
